We go through one compound from patent publication US20230310435A1, “HOST DEFENSE PROTEIN (HDP) MIMETICS FOR PROPHYLAXIS AND/OR TREATMENT OF INFLAMMATORY DISEASES OF THE GASTROINTESTINAL TRACT” (priority 2015, published 2023).

Experiment [1] relates to LPS-induced IL-1β release, NR8383 cells. Put plainly: LPS-induced IL-1β release in NR8383 rat alveolar macrophages (ELISA). Type of experiment: cell-based. To be noted: Macrophage, 8-hour brilacidin and LPS exposure, read-out: IC50, inhibition of LPS-induced IL-1β release. The protocol:
To examine the effect of brilacidin on the pro-inflammatory cytokine IL-1β production in cells, rat alveolar macrophage (NR8383) cells were pretreated with a range of brilacidin concentrations for 45 minutes, followed by treatment with 1 μg/ml LPS from E. coli (Sigma, St. Louis, MO) for 8 hours in the presence of brilacidin. After 8 hours, supernatants were collected for IL-1β measurement by ELISA. IL-1β was measured using an immunoassay kit according to manufacturer's instructions (Thermo Scientific, Rockford, IL).
PDE4 and PDE3 inhibition results in subsequent down-regulation of pro-inflammatory cytokines/chemokines and its regulators, and experiments were conducted to confirm such down-regulation by brilacidin in ex vivo cell-based assays. In these assays, cells were exposed to brilacidin 45 minutes before an 8-hour lipopolysaccharide (LPS) stimulation in the presence of brilacidin; cytokine/enzyme concentrations were determined by ELISA using a standard immunoassay kit.
On the technique in general: An ELISA detects its analyte on a solid surface through an enzyme-linked reagent.

Experiment [2] relates to DSS-induced colitis. Put plainly: Dextran sulfate sodium (DSS)-induced acute colitis model. Type of experiment: in vivo, male C57BL/6 mice. On the procedure: The efficacy of brilacidin administered was investigated in a murine model of chemically-induced acute colitis using dextran sulfate sodium (DSS). This was a different in vivo model of IBD to the testing performed in Examples 16 and 17 (where mucosal injury was induced by using acetic acid). DSS-induced colitis in mice is characterized by weight loss, bloody diarrhea, intestinal ulcerations and infiltrations with granulocytes. In mice, DSS was administered from Day 0 to Day 11, as a 5% (w/v) DSS solution in the drinking water of male C57BL/6 mice (Kim J J, et al., J. Vis. Exp., 2012, 60, 3678), to induce severe murine colitis. On Days 7-11, test compound brilacidin (400 mg/kg) or positive control 5-ASA (50 mg/kg) or water (negative control) were administered as a solution, per rectum. On Days 6, 10 and 11, rectal bleeding was assessed using a Hemoccult® kit and stool consistency was visually assessed; severity of symptoms were scored on a scale of 0 (normal) to 4 (severe). Level of pro-inflammatory cytokines interleukin (IL)-6 and IL-1β in distal colon tissue were determined from excised colons using conventional ELISA methods.

Experiment [3] deals with human PDE4B2 (Homo sapiens, UniProt Q07343). Put plainly: PDE-Glo phosphodiesterase assay, PDE4. It counts as biochemical. Conditions: 8 ng PDE4B, 1 μM cAMP substrate, 15 min pre-incubation; read-out: IC50, inhibition of PDE4. The protocol:
Method for FIG. 1. […] The compounds and PDE4B (BPS Biosciences, San Diego, CA) were mixed and pre-incubated at room temperature for 15 minutes. Substrate was added and the reaction was incubated for 7 minutes at room temperature. Data are presented as luminescence units (RLU).
Method for FIG. 2. Phosphodiesterase inhibition assays of PDE4 were performed, using PMX-60056. The PDE-Glo phosphodiesterase assay (Promega, Madison, WI, USA Catalog No. V1361) was performed using 8 ng of PDE4B (BPS Biosciences, San Diego, CA). […] The compounds and PDE4B were mixed and pre-incubated at room temperature for 15 minutes. Substrate was added and the reaction was incubated for 7 minutes at room temperature. Data are presented as luminescence units (RLU).
Phosphodiesterase type 4 (PDE4) is predominant phosphodiesterase expressed in neutrophils, T cells and macrophages. PDE inhibitors show broad spectrum of anti-inflammatory effects in almost all inflammatory cells. PDE4 inhibitors, block the degradative action of PDE4 on cAMP, thereby increasing intracellular levels of cAMP levels which mediate phosphorylation of protein kinases. […] Data are presented as luminescence units (RLU).
The PDE-Glo phosphodiesterase assay was performed according to the Method described for FIG. 2, using 8 ng of PDE4B, 1 μM cAMP substrate PMX-60056. Data are presented as luminescence units (RLU). […]

The mark [4] stands for this setting: by Day 11, brilacidin 400 mg/kg per rectum Days 7-11, p<0.001.
The mark [5] stands for this setting: end of study, brilacidin 400 mg/kg or 5-ASA 50 mg/kg per rectum Days 7-11.

Several values for one entry are separate records, joined by “and”; a condition that tells them apart may be missing. Identical values can stand only once. Counter-ions that a name gives are not always drawn.

For orientation: IC50 means the concentration that inhibits the measured activity by half.

human PDE4B2, sequence (Q07343 1-564 isoform Q07343-2): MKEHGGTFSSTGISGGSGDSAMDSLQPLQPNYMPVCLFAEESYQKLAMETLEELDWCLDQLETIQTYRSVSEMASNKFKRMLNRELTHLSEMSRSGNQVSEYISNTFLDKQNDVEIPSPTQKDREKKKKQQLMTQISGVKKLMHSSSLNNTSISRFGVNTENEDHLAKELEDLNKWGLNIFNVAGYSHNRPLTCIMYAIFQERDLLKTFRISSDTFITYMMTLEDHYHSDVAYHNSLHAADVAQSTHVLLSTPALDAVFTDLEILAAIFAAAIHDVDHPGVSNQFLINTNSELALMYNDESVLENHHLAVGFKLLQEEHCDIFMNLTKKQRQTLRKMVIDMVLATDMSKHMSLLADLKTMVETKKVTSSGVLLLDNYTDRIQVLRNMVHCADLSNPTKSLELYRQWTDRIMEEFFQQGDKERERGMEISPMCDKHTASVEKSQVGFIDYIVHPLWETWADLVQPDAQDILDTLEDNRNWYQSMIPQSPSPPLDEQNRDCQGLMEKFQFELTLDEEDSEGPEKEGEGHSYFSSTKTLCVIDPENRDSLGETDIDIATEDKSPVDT

As to `N=C(N)NCCCCC(=O)Nc1cc(C(F)(F)F)cc(NC(=O)c2cc(C(=O)Nc3cc(C(F)(F)F)cc(NC(=O)CCCCNC(=N)N)c3O[C@@H]3CCNC3)ncn2)c1O[C@@H]1CCNC1` [PMX-30063, N^4,N^6-bis(2-((R)-pyrrolidin-3-yloxy)-3-((4-carbamoylbutyl)guanidine)-5-(trifluoromethyl)phenyl)pyrimidine-4,6-dicarboxamide tetrahydrochloride salt], the 50% inhibitory concentration (IC50) in experiment [1] came to 0.702 µM. In experiment [2] (setting [4]), the “rectal bleeding score compared to DSS-treated control (in words)” value was “significant decrease” and the “stool consistency compared to DSS-treated control (in words)” value is listed as “significantly more firm”. In experiment [2] (setting [5]), the “mean reduction in IL-1β in distal colon tissue compared to DSS-treated control group” value is 27% and the “mean reduction in IL-6 in distal colon tissue compared to DSS-treated control group” value is 40%. Besides, in experiment [3], the IC50 was ~3 µM and 3 µM.
